Assay: Inhibition of Hepatitis C virus genotype 1b NS5B RNA-dependent-RNA polymerase assessed as reduction in viral replication after 72 hrs by indirect immunofluorescence assay
An EC50 of 13 nM was found for COc1cccc(-n2cc(Cn3ccc4nc(-c5ccccc5F)nc-4c3)nn2)c1 in this work.
An EC50 of 35 nM was found for Fc1ccc(-n2cc(Cn3ccc4nc(-c5ccccc5F)nc-4c3)nn2)cc1 in this work.
An EC50 of 23 nM was found for Fc1ccccc1-c1nc2ccn(Cc3cn(-c4ccccc4)nn3)cc-2n1 in this work.
An EC50 of 84 nM was found for Cc1cc(C)n2nc(Cn3cc(Cn4ccc5nc(-c6ccccc6F)nc-5c4)nn3)nc2n1 in this work.
An EC50 of 21 nM was found for Fc1ccccc1-c1nc2ccn(Cc3cn(Cc4cn5cccnc5n4)nn3)cc-2n1 in this work.
An EC50 of 93 nM was found for O=c1ccccn1Cc1ccc(-n2cc(Cn3ccc4nc(-c5ccccc5F)nc-4c3)nn2)cc1 in this work.
An EC50 of 52 nM was found for Fc1ccccc1-c1nc2ccn(Cc3cn(-c4ccccc4F)nn3)cc-2n1 in this work.
An EC50 of 18 nM was found for CS(=O)(=O)Nc1ccc(-n2cc(Cn3ccc4nc(-c5ccccc5F)nc-4c3)nn2)cc1 in this work.
An EC50 of 1.2 nM was found for COc1ccc(-n2cc(Cn3ccc4nc(-c5ccccc5F)nc-4c3)nn2)cc1 in this work.
An EC50 of 37 nM was found for Cc1cc(C)n2cc(Cn3cc(Cn4ccc5nc(-c6ccccc6F)nc-5c4)nn3)nc2n1 in this work.
An EC50 of 96 nM was found for O=c1ncccn1Cc1ccc(-n2cc(Cn3ccc4nc(-c5ccccc5F)nc-4c3)nn2)cc1 in this work.
